Test results reported in PubChem BioAssay AID588756 (Broad Institute, 2011).
The source made the active and inactive calls.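 How the source made its calls: active means a falling-signal curve whose fitted AC50 is at most ten times the top valid dose; inconclusive means flat fit with 30 to 70% inhibition, or a poor fit; inactive means the rest.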

Molecular target: Aurora kinase B (Homo sapiens) (UniProt Q96GD4)
Test: Aurora B kinase inhibition counter-screen, dose response, counter-screen for STK33 inhibitor project, biochemical, scintillation, dry powder, set 2 (AID 588756)
Conditions: gamma-32P-ATP (ATP at Km), P30 filter scintillation

Sequence of Aurora kinase B (Homo sapiens) (Q96GD4 whole entry, looked up): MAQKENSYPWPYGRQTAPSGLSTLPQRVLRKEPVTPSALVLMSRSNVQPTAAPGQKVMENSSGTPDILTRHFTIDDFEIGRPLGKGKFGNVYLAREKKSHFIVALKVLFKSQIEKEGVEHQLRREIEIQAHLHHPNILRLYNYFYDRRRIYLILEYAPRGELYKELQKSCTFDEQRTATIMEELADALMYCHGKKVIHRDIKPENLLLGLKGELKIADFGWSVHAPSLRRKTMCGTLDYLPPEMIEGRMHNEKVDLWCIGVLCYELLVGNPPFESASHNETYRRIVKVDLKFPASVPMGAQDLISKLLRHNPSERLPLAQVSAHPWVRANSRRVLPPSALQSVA

SMILES	activity change, negative = inhibition (at 10 µM (top of the series))	AC50
COc1cc(/C=C2\S/C(=N/c3ccccn3)NC2=O)ccc1O	inactive	
COc1cc(/C=C2\SC(=Nc3ccccc3F)NC2=O)ccc1O		> 20 µM (inactive)
COc1cc(/C=C2\SC(=Nc3ccccc3Cl)NC2=O)ccc1O		10.1 µM

Other lines, results leading:

activity change, negative = inhibition (at 10 µM (top of the series))	AC50	SMILES
	2.92 µM	COc1cc(/C=C2\SC(=NCc3ccccc3)NC2=O)ccc1O
	> 20 µM (inactive)	COc1cc(/C=C2\SC(N)=NC2=O)ccc1O
